Assay results: paper PMC6009965, “α-Glucosidase inhibition by flavonoids: an in vitro and in silico structure–activity relationship study” (Journal of Enzyme Inhibition and Medicinal Chemistry, 2017)
Read-outs that look alike come from different tables or passages of the source.

How the values were obtained:
[1] = biological target: T1, α-glucosidase from Saccharomyces cerevisiae (Saccharomyces cerevisiae, UniProt P53341); assay: biochemical
T1 construct: purchased Sigma-Aldrich Co. LLC (St. Louis, MO)
Experimental: Compounds A1, A2, A3, A4, A5, A6, B1, B2, B3, B4, C1, C2, C3, C4, C5, C6, C8, C9, D1 (chrysin), D2 (galangin) and D5 were obtained from Indofine Chemical Company, Inc. (Hillsborough, NJ). The flavonoids C7, C10, C11, C12, C13, D10, D11, D12, D13, D14 and D17 were synthesised as previously described. For the enzymatic assays, flavonoids were dissolved in DMSO (the final concentration of DMSO in the reactional mixture was 4.76%).
The α-glucosidase activity was measured using a method of Tadera et al.[31] slightly modified. The assay was carried out by monitoring the α-glucosidase-mediated transformation of the substrate pNPG into α-D-glucose and p-nitrophenol, at 405 nm. Briefly, in a 96-well plate, the enzyme (0.05 U/mL), dissolved in 100 mM phosphate buffer (pH 6.8), was pre-incubated at 37 °C for 5 min with the flavonoids (0–200 μM). In sequence, pNPG was added (600 μM) and incubated in the reaction mixture at 37 °C for 30 min. The enzymatic reaction was monitored spectrophotometrically, in a microplate reader (Synergy HT, BIO-TEK), by measuring the absorbance at 405 nm. The obtained values correspond to the slope measured between 5 and 20 min. […] The obtained results represent at least three independent experiments.

α-glucosidase = settings: cited from earlier work; for Activity against α-glucosidase catalytic activity: ref Gao et al. 27
yeast α-glucosidase = biological target: T2, yeast α-glucosidase (Saccharomyces cerevisiae, UniProt P53341); assay: Inhibitory kinetic analysis (Michaelis–Menten, Lineweaver–Burk plots); assay type: biochemical; settings: for Type of inhibition: pNPG 300, 600 and 1200 μM
T2 construct: purchased Sigma-Aldrich Co. LLC (St. Louis, MO)
Experimental: Briefly, the enzyme (0.05 U/mL), dissolved in 100 mM phosphate buffer (pH 6.8), was pre-incubated at 37 °C with the above mentioned flavonoids in a 96-well plate, for 5 min. In sequence, pNPG was added (300, 600 and 1200 μM) and incubated in the reaction mixture at 37 °C for 30 min.
The study of the inhibition type (competitive, uncompetitive, non-competitive or mixed) of the tested flavonoids was performed using the nonlinear regression Michaelis–Menten enzyme kinetics and the corresponding Lineweaver–Burk double reciprocal plots for each concentration of the inhibitor and substrate. The Ki values were calculated with GraphPad Software 6.0 by plotting the reciprocal of maximum velocity (1/V max) (y axis) against the flavonoid concentrations (x axis) (Table 2)[38–40].
The type of inhibition parameters were all calculated with GraphPad Software 6.0. The obtained results represent at least three independent experiments.

[2] = read-out: Inhibitory activity at the highest tested concentration
[3] = enzyme 0.05 U/mL, pNPG 600 μM, pH 6.8, 37 °C, mean ± SEM, read-out: IC50
[4] = mean ± SEM, from 1/Vmax vs flavonoid concentration, read-out: Ki

T1 sequence (P53341 whole entry): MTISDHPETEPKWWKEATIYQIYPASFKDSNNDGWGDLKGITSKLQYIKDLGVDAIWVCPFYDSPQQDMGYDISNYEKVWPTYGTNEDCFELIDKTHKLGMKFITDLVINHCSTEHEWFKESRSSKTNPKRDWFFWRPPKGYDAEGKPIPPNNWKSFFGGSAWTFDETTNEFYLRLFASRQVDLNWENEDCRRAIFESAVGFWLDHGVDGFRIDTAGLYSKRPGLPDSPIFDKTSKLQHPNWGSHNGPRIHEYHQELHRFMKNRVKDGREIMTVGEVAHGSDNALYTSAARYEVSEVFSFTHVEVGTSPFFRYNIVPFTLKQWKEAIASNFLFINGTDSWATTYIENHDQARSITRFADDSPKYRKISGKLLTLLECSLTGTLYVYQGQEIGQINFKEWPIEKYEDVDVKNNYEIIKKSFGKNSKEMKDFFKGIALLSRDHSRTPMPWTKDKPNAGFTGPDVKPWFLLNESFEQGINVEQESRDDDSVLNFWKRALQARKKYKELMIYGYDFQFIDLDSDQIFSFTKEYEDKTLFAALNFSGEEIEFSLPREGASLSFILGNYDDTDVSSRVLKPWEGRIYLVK
T2 sequence (P53341 whole entry): as above

Structure (SMILES): O=c1cc(-c2ccc(O)cc2)oc2cc(O)cc(O)c12 [Compound D5, Apigenin]
- IC50 [1]: 82 ± 6 µM

Structure (SMILES): O=c1cc(-c2ccccc2)oc2ccccc12 [Compound A1, Flavone]
- Inhibitory activity against α-glucosidase (in words) [1]: not able to inhibit α-glucosidase
- inhibition at 200 µM [1, 2]: < 20%

Structure (SMILES): O=c1c(O)c(-c2ccc(O)cc2)oc2cc(O)ccc12 [Compound C5]
- IC50 [1, 3]: 96 ± 10 µM

Structure (SMILES): O=c1cc(-c2ccccc2)oc2cc(O)c(O)c(O)c12 [Compound D3, Baicalein]
- IC50 [1, 3]: 44 ± 3 µM

Structure (SMILES): O=c1c(O)c(-c2ccc(O)cc2O)oc2cc(O)cc(O)c12 [Compound D9, Morin]
- IC50 [1]: 32 ± 2 µM

Structure (SMILES): O=c1cc(-c2ccc(O)c(O)c2)oc2cc(O)ccc12 [Compound C6]
- IC50 [1, 3]: 95 ± 7 µM

Structure (SMILES): O=c1cc(-c2ccc(O)cc2)oc2ccccc12 [Compound A3]
- Inhibitory activity against α-glucosidase (in words) [1]: low or no inhibitory activity
- inhibition at 200 µM [1, 2]: < 20%

Structure (SMILES): O=c1cc(-c2ccc(O)c(O)c2)oc2cc(O)c(Cl)c(O)c12 [Compound D11]
- IC50 [1, 3]: ~200 µM

Structure (SMILES): O=c1cc(-c2ccccc2)oc2cccc(O)c12 [Compound B1]
- Activity against α-glucosidase catalytic activity (α-glucosidase): no activity
- inhibition at 200 µM [1, 2]: < 20%

Structure (SMILES): O=C1C[C@@H](c2ccc(O)c(O)c2)Oc2cc(O)cc(O)c21 [Compound E2, Eriodictyol]
- inhibition at 200 µM [1, 2]: 35 ± 4%

Structure (SMILES): COc1ccc(-c2cc(=O)c3c(O)cc(O)cc3o2)cc1 [Compound D16, Acacetin]
- IC50 [1, 3]: ~200 µM

Structure (SMILES): O=c1c(O)c(-c2ccc(O)c(O)c2)oc2cc(O)cc(O)c12 [Compound D8, Quercetin]
- Type of inhibition (α-glucosidase): mixed type inhibitor
- Type of inhibition (yeast α-glucosidase): Competitive

Structure (SMILES): O=C1C[C@@H](c2ccc(O)cc2)Oc2cc(O)cc(O)c21 [Compound E1, Naringenin]
- inhibition at 200 µM [1, 2]: 45 ± 3%

Structure (SMILES): O=c1c(O)c(-c2ccc(O)c(O)c2)oc2c(O)c(O)ccc12 [Compound C7]
- IC50 [1, 3]: 7.6 ± 0.4 µM
- Ki (yeast α-glucosidase): 6.5 ± 0.2 µM
- Type of inhibition (yeast α-glucosidase): Competitive

Structure (SMILES): C[C@H]1O[C@H](O[C@H]2[C@H](O)[C@@H](O)[C@@H](O[C@H]3[C@H](O)[C@@H](O)C(O)O[C@@H]3CO)O[C@@H]2CO)[C@H](O)[C@@H](O)[C@@H]1N[C@H]1C=C(CO)[C@@H](O)[C@H](O)[C@H]1O (stereo partly drawn) [Acarbose, reference compound]
- Type of inhibition (α-glucosidase; ref Kim et al. 68, Lopez et al. 69): competitive
- Type of inhibition (α-glucosidase; ref Son et al. 70): mixed type of inhibition
- Type of inhibition (yeast α-glucosidase): Competitive

Structure (SMILES): O=C1c2c(O)cc(O)cc2OC(c2ccc(O)c(O)c2)C1O (stereo not drawn) [Compound E3, Taxifolin]
- IC50 [1]: ~200 µM
- Ki (yeast α-glucosidase; [4]): 347 ± 15 µM
- Type of inhibition (yeast α-glucosidase): Non-competitive

Structure (SMILES): O=c1c(Cl)c(-c2ccc(O)c(O)c2)oc2cc(O)cc(O)c12 [Compound D10]
- IC50 [1]: 21 ± 2 µM
- Ki (yeast α-glucosidase; [4]): 51 ± 6 µM
- Type of inhibition (yeast α-glucosidase): Non-competitive

Structure (SMILES): COc1ccc(-c2oc3c(O)c(O)ccc3c(=O)c2O)cc1OC [Compound C11]
- inhibition at 200 µM [1, 2]: 31 ± 3%

Structure (SMILES): O=c1c(O)c(-c2cccc(O)c2)oc2cc(O)ccc12 [Compound C4]
- IC50 [1, 3]: 42 ± 4 µM

Structure (SMILES): O=c1cc(-c2ccccc2)oc2cc(O)ccc12 [Compound C1]
- Activity against α-glucosidase catalytic activity (α-glucosidase): no activity
- IC50 [1]: > 200 µM
- inhibition at 200 µM [1, 2]: < 20%

Structure (SMILES): O=c1cc(-c2ccc(O)c(O)c2)oc2c(Cl)c(O)c(Cl)c(O)c12 [Compound D14]
- IC50 [1]: 34 ± 3 µM

Structure (SMILES): O=c1cc(-c2ccc(O)c(O)c2)oc2ccccc12 [Compound A4]
- Inhibitory activity against α-glucosidase (in words) [1]: low or no inhibitory activity
- inhibition at 200 µM [1, 2]: 32 ± 4%

Structure (SMILES): COc1ccc(-c2oc3ccccc3c(=O)c2O)cc1OC [Compound A6]
- IC50 [1, 3]: > 100 µM
- inhibition at 100 µM [1, 2]: < 20%

Structure (SMILES): O=c1cc(-c2ccc(O)cc2)oc2cccc(O)c12 [Compound B3]
- IC50 [1, 3]: 66 ± 2 µM
- Ki (yeast α-glucosidase): 127 ± 9 µM
- Type of inhibition (yeast α-glucosidase): Mixed

Structure (SMILES): COc1ccc2c(=O)c(O)c(-c3ccc(OCc4ccccc4)c(OCc4ccccc4)c3)oc2c1OC [Compound C12]
- inhibition at 200 µM [1, 2]: < 20%

Structure (SMILES): C[C@@H]1O[C@@H](OC[C@H]2O[C@@H](Oc3c(-c4ccc(O)c(O)c4)oc4cc(O)cc(O)c4c3=O)[C@H](O)[C@@H](O)[C@@H]2O)[C@H](O)[C@H](O)[C@H]1O [Compound D18, Rutin]
- Inhibitory activity against α-glucosidase (in words) [1]: low activity
- inhibition at 200 µM [1, 2]: < 20%

Structure (SMILES): O=c1cc(-c2ccc(O)cc2)oc2cc(O)ccc12 [Compound C3]
- IC50 [1, 3]: ~200 µM

Structure (SMILES): O=c1cc(-c2cccc(O)c2)oc2cccc(O)c12 [Compound B2]
- inhibition at 200 µM [1, 2]: 31 ± 4%

Structure (SMILES): O=c1cc(-c2ccccc2)oc2cc(O)cc(O)c12 [Compound D1, Chrysin]
- Inhibitory activity against α-glucosidase (in words) [1]: no inhibitory effect
- inhibition at 50 µM [1, 2]: < 20%

Structure (SMILES): O=c1cc(-c2cccc(O)c2)oc2ccccc12 [Compound A2]
- Inhibitory activity against α-glucosidase (in words) [1]: low or no inhibitory activity
- inhibition at 200 µM [1, 2]: < 20%

Structure (SMILES): COc1cccc(-c2oc3cc(OC)ccc3c(=O)c2O)c1 [Compound C8]
- inhibition at 100 µM [1, 2]: 22 ± 2%

Structure (SMILES): O=c1cc(-c2cccc(O)c2)oc2cc(O)cc(O)c12 [Compound D4]
- IC50 [1]: 89 ± 3 µM

Structure (SMILES): O=c1cc(-c2ccc(O)c(O)c2)oc2c(Cl)c(O)cc(O)c12 [Compound D12]
- IC50 [1]: 55 ± 2 µM

Structure (SMILES): O=c1cc(-c2ccc(O)c(O)c2)oc2cccc(O)c12 [Compound B4]
- IC50 [1]: 66 ± 7 µM

Structure (SMILES): O=c1c(Cl)c(-c2ccc(O)c(O)c2)oc2c(Cl)c(O)cc(O)c12 [Compound D13]
- IC50 [1]: 43 ± 3 µM

Structure (SMILES): COc1ccc(-c2oc3c(OCc4ccccc4)c(OCc4ccccc4)ccc3c(=O)c2O)cc1OC [Compound C13]
- inhibition at 200 µM [1, 2]: 32 ± 3%

Structure (SMILES): O=c1cc(-c2cccc(O)c2)oc2cc(O)ccc12 [Compound C2]
- IC50 [1, 3]: 53 ± 4 µM

Structure (SMILES): O=c1c(O)c(-c2ccccc2)oc2cc(O)cc(O)c12 [Compound D2, Galangin]
- inhibition at 200 µM [1, 2]: 21 ± 3%

Structure (SMILES): COc1ccc(-c2cc(=O)c3c(O)cc(O)cc3o2)cc1OC [Compound D17]
- inhibition at 200 µM [1, 2]: < 20%

Structure (SMILES): O=c1c(O)c(-c2ccc(O)c(O)c2)oc2ccccc12 [Compound A5]
- IC50 [1, 3]: 54 ± 3 µM
- Ki (yeast α-glucosidase): 41 ± 7 µM
- Type of inhibition (yeast α-glucosidase): Mixed

Structure (SMILES): O=c1cc(-c2ccc(O)c(O)c2)oc2cc(O)cc(O)c12 [Compound D7, Luteolin]
- IC50 [1, 3]: 46 ± 6 µM

Structure (SMILES): COc1ccc2c(=O)c(O)c(-c3ccc(O)c(O)c3)oc2c1OC [Compound C10]
- IC50 [1]: 86 ± 6 µM

Structure (SMILES): COc1ccc(-c2oc3cc(OC)ccc3c(=O)c2O)cc1 [Compound C9]
- inhibition at 200 µM [1, 2]: < 20%
